# Data from patent publication US10183944B2 (Asana Biosciences, LLC, priority 2011, dated 2019).
# Where a name gives a salt, the structure may show the parent alone.
# Columns and labels:
# [1] = target: Syk (356-635 amino acids) catalytic domain (Homo sapiens (Human), UniProt P43405); experiment: Inhibition of enzymatic Syk kinase activity (radiometric); type: biochemical; settings: read-out: IC50 Syk
# Outline: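 Human Syk (356-635) kinase domain (0.035–7.5 ng/reaction) preincubated with compound 30 minutes at room temperature, then reacted with pG4T substrate, 100 μM ATP (stock) and γ-32P-ATP for 10 minutes at 30° C. Reaction stopped with HCl/ATP, spotted on P81 paper, washed and counted by scintillation. Percent inhibition versus no-compound counts.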
# JAK2 = JAK2 (Homo sapiens (Human), UniProt O60674); experiment: Inhibition of enzymatic JAK2 kinase activity (TR-FRET); type: biochemical; settings: read-out: IC50 JAK
# Sequence of JAK2 (O60674 808-1132): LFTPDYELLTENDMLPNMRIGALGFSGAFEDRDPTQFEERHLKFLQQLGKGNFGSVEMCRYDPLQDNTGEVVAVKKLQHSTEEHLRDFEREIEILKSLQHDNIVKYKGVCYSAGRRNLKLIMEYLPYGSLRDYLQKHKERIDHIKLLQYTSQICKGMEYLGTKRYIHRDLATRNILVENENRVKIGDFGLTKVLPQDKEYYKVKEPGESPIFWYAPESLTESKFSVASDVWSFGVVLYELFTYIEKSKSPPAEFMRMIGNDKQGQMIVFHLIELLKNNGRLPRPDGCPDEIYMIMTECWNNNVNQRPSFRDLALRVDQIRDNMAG
# Outline: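 Enzyme preincubated with compound 30 min at RT, then Ulight-poly-GT substrate and ATP added for 60 min at RT. EDTA stop, Eu-antiphosphotyrosine antibody; TR-FRET ratio 665/615 nm (ex 340 nm), blank-corrected; % inhibition versus positive control.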
# RBL2H3 cells = experiment: Degranulation assay: β-hexosaminidase release during immune complex mediated degranulation; type: cell-based, rat; settings: Rattus norvegicus, RBL-2H3, Assay Protocol B (96 well format); for inhibition at 1 µM: read-out: Degranulation % inhibition at 1 μM; for EC50: read-out: Degranulation EC50
# Experimental: The objective of this assay was to examine by Fluorescence method the effect of compounds on β-hexosaminidase release during immune complex mediated degranulation in RBL2H3 cells. Compounds were tested for their ability to inhibit the ability of this immune complex to mediate β-hexosaminidase release, in an enzyme assay with […] as substrate. […] Emission 460 nm). [table] [table] RBL2H3 cells were maintained in MEM complete media containing 10% FBS at 70%-80% confluence in a mammalian cell culture CO2 incubator with 5% CO2 at 37° C. 2×10^5 cells/well were plated in 1 mL of complete media and incubated for 5 hours for cell attachment. Complete media was replaced with 1 mL of serum free MEM media containing 1.2 μg/mL of anti-DNP rat IgE as sensitizing agent and further incubated overnight with 5% CO2 at 37° C. […] Cells were further stimulated with 5 μg/mL of DNP-BSA for 60 minutes. Plates were centrifuged for 5 minutes at 1000 rpm and 25 μL of culture supernatant was transferred from each assay well into a 96 well black coated plate. 25 μL β-NAG substrate was added to this mixture and incubated at room temperature for 30 minutes. The reaction was terminated with 100 μL of stop solution and fluorescence was monitored. (Excitation 355 nm; Emission 460 nm) See, Sanderson, (2010), Cellular Immunology, 262(1): 28-34 and Silverman, (2006) MCB, 26(5):1826-1838, which are incorporated herein by reference. The % release of β-Hexosaminidase for the test compound was calculated using the following formula: RBL2H3 cells were maintained in MEM complete media containing 10% FBS at 70-80% confluence in a mammalian cell culture CO2 incubator with 5% CO2 at 37° C. 5×10^4 cells/well were plated in 200 μL of complete media containing 0.3 μg/mL of anti-DNP rat IgE as sensitizing agent for 24 hours at 37° C. & 5% CO2. The following day, cells were washed twice with PIPES buffer for 10 minutes at 37° C. and replenished with serum free MEM media. Cells were treated with various concentrations of test compounds (in 0.5% DMSO) for 15 minutes at 37° C. and 5% CO2. The cells were further stimulated with 0.1 μg/mL of DNP-BSA for 45 minutes. The plates were spun for 5 minutes at 2000 rpm and 25 μL of culture supernatant was then transferred from each assay well into a 96 well black coated plate. […] β-NAG substrate was added and incubated at RT for 30 minutes. After incubation with substrate, 150 μL of stop solution was added and fluorescence was monitored. (Excitation 355 nm; Emission 460 nm). See, Yamamoto, JPET, 306(3):1174-1181 (2003) and Taylor, MCB, 15(8): 4149-4157 (1995), which are herein incorporated by reference. Release of β-hexosaminidase during the degranulation process by immune complex mediated FcεRI stimulation is through the SYK pathway. The % inhibition of β-hexosaminidase release by Syk inhibitor gives information with regard to its Syk inhibition potency.
SMILES,IC50 [1],IC50 (JAK2),EC50 (RBL2H3 cells),inhibition at 1 µM (RBL2H3 cells)
"COc1cccc(-c2nc(Nc3ccc(N4CCC5(CC4)CC5C(=O)O)cc3)c3c(=O)[nH]ncc3n2)c1 (stereo not drawn) [Example 47, 6-(4-((2-(3-methoxyphenyl)-5-oxo-5,6-dihydropyrimido[4,5-d]pyridazin-4-yl)amino)phenyl)-6-azaspiro[2.5]octane-1-carboxylic acid]",< 0.1 µM,< 0.1 µM,0.132 µM,100%
"O=c1[nH]ncc2nc(N3CCCC3)nc(Nc3ccc(CN4CCNCC4)cc3)c12 [Example 48, 4-((4-(piperazin-1-ylmethyl)phenyl)amino)-2-(pyrrolidin-1-yl)pyrimido[4,5-d]pyridazin-5(6H)-one hydrochloride]",< 0.1 µM,< 0.1 µM,–,100%
"N#CCC1CCN(c2nc(Nc3ccc(N4CCC(CC(=O)O)CC4)cc3)c3c(=O)[nH]ncc3n2)CC1 [Example 71, 2-(1-(4-((2-(4-(cyanomethyl)piperidin-1-yl)-5-oxo-5,6-dihydropyrimido[4,5-d]pyridazin-4-yl)amino)phenyl)piperidin-4-yl)acetic acid]",> 0.1 µM,> 0.1 µM,1.02 µM,65%
"O=c1[nH]ncc2nc(N3CCCCCC3)nc(Nc3ccc(OCCN4CCOCC4)cc3)c12 [Example 93, 2-(azepan-1-yl)-4-((4-(2-morpholinoethoxy)phenyl)amino) pyrimido[4,5-d]pyridazin-5(6H)-one]",< 0.05 µM,< 0.05 µM,–,49%
"CN1CCN(CCOc2ccc(Nc3nc(N4CCCCCC4)nc4cn[nH]c(=O)c34)cc2)CC1 [Example 95, 2-(azepan-1-yl)-4-((4-(2-(4-methylpiperazin-1-yl)ethoxy)phenyl)amino)pyrimido[4,5-d]pyridazin-5(6H)-one]",< 0.05 µM,< 0.05 µM,–,35%
"O=C(O)C1CCN(CCOc2ccc(Nc3nc(N4CCCCCC4)nc4cn[nH]c(=O)c34)cc2)CC1 [Example 98, 1-(2-(4-((2-(azepan-1-yl)-5-oxo-5,6-dihydropyrimido[4,5-d]pyridazin-4-yl)amino)phenoxy)ethyl)piperidine-4-carboxylic acid]",< 0.05 µM,< 0.05 µM,0.593 µM,62%
"O=C(c1ccc(Nc2nc(N3CCCCCC3)nc3cn[nH]c(=O)c23)cc1)N1CCNCC1 [Example 104, 2-(azepan-1-yl)-4-((4-(piperazine-1-carbonyl)phenyl)amino)pyrimido[4,5-d]pyridazin-5(6H)-one hydrochloride]",< 0.05 µM,< 0.01 µM,0.11 µM,100%
"O=c1[nH]ncc2nc(N3CCCCCC3)nc(Nc3ccc(OCCN4CCNCC4)cc3)c12 [Example 107, 2-(azepan-1-yl)-4-((4-(2-(piperazin-1-yl)ethoxy)phenyl)amino)pyrimido[4,5-d]pyridazin-5(6H)-one]",< 0.01 µM,< 0.05 µM,0.094 µM,91%
"N#CCC1CCN(c2nc(Nc3ccc(N4CCC(CC(=O)O)CC4)nc3)c3c(=O)[nH]ncc3n2)CC1 [Example 116, 2-(1-(5-((2-(4-(cyanomethyl)piperidin-1-yl)-5-oxo-5,6-dihydropyrimido[4,5-d]pyridazin-4-yl)amino)pyridin-2-yl)piperidin-4-yl)acetic acid]",< 0.05 µM,< 0.05 µM,0.273 µM,65%
"O=C(CC1CCN(c2ccc(Nc3nc(N4CCCCCC4)nc4cn[nH]c(=O)c34)cc2)CC1)N(CCO)CCO [Example 118, 2-(1-(4-((2-(azepan-1-yl)-5-oxo-5,6-dihydropyrimido[4,5-d]pyridazin-4-yl)amino)phenyl)piperidin-4-yl)-N,N-bis(2-hydroxyethyl)acetamide]",< 0.05 µM,< 0.01 µM,0.153 µM,87%

# Further lines, with some results ahead:
IC50 [1],IC50 (JAK2),EC50 (RBL2H3 cells),SMILES,inhibition at 1 µM (RBL2H3 cells)
< 0.01 µM,> 0.1 µM,–,"CCOc1nc(Nc2ccc(CN3CCNCC3)cc2)c2c(=O)[nH]ncc2n1 [Example 50, 2-ethoxy-4-((4-(piperazin-1-ylmethyl)phenyl)amino)pyrimido[4,5-d]pyridazin-5(6H)-one hydrochloride]",49%
< 0.01 µM,< 0.01 µM,0.001 µM,"O=c1[nH]ncc2nc(N3CCCCCC3)nc(Nc3ccc(CN4CCNCC4)cc3)c12 [Example 52, 2-(azepan-1-yl)-4-((4-(piperazin-1-ylmethyl)phenyl)amino)pyrimido[4,5-d]pyridazin-5(6H)-one hydrochloride]",100%
< 0.01 µM,< 0.01 µM,0.013 µM,"CC(C)N(c1nc(Nc2ccc(CN3CCNCC3)cc2)c2c(=O)[nH]ncc2n1)C(C)C [Example 54, 2-(diisopropylamino)-4-((4-(piperazin-1-ylmethyl)phenyl)amino)pyrimido[4,5-d]pyridazin-5(6H)-one hydrochloride]",100%
< 0.01 µM,< 0.01 µM,0.018 µM,"O=c1[nH]ncc2nc(N3CCCCCC3)nc(Nc3ccc(N4CCOCC4)cc3)c12 [Example 60, 2-(azepan-1-yl)-4-((4-morpholinophenyl)amino)pyrimido[4,5-d]pyridazin-5(6H)-one]",100%
< 0.01 µM,< 0.01 µM,0.076 µM,"O=C(O)CC1CCN(c2ccc(Nc3nc(N4CCCCCCC4)nc4cn[nH]c(=O)c34)cc2)CC1 [Example 88, 2-(1-(4-((2-(azocan-1-yl)-5-oxo-5,6-dihydropyrimido[4,5-d]pyridazin-4-yl)amino)phenyl)piperidin-4-yl)acetic acid]",100%
< 0.01 µM,< 0.05 µM,0.154 µM,"O=C(O)CC1CCC(c2ccc(Nc3nc(N4CCCCCC4)nc4cn[nH]c(=O)c34)cc2)CC1 (stereo not drawn) [Example 91, 2-(4-(4-((2-(azepan-1-yl)-5-oxo-5,6-dihydropyrimido[4,5-d]pyridazin-4-yl)amino)phenyl)cyclohexyl)acetic acid]",100%
< 0.01 µM,< 0.05 µM,0.111 µM,"O=C(O)CCCOc1ccc(Nc2nc(N3CCCCCC3)nc3cn[nH]c(=O)c23)cc1 [Example 92, 4-(4-((2-(azepan-1-yl)-5-oxo-5,6-dihydropyrimido[4,5-d]pyridazin-4-yl)amino)phenoxy)butanoic acid]",100%
< 0.01 µM,< 0.01 µM,0.28 µM,"O=C(O)CC1CCN(CCOc2ccc(Nc3nc(N4CCCCCC4)nc4cn[nH]c(=O)c34)cc2)CC1 [Example 96, 2-(1-(2-(4-((2-(azepan-1-yl)-5-oxo-5,6-dihydropyrimido[4,5-d]pyridazin-4-yl)amino)phenoxy)ethyl)piperidin-4-yl) acetic acid]",85%
< 0.01 µM,< 0.05 µM,0.044 µM,"NC(=O)CC1CCN(c2ccc(Nc3nc(N4CCCCCC4)nc4cn[nH]c(=O)c34)cn2)CC1 [Example 99, 2-(1-(5-((2-(azepan-1-yl)-5-oxo-5,6-dihydropyrimido[4,5-d]pyridazin-4-yl)amino)pyridin-2-yl)piperidin-4-yl) acetamide]",94%
